# Columns and labels:
# [1] = molecular target: T1, full-length SHP2-E76K oncogenic mutant (Homo sapiens, UniProt Q06124, E76K); experiment: DiFMUP fluorescence phosphatase inhibition assay, SHP2-E76K; assay type: biochemical; conditions: DiFMUP at Km (20 μM), 10-point dose–response, pH 6.0
# T1 construct: Recombinant human full-length SHP2 (1–594) WT and E76K mutants; made in house
# T1 sequence (Q06124 1-593 E76K): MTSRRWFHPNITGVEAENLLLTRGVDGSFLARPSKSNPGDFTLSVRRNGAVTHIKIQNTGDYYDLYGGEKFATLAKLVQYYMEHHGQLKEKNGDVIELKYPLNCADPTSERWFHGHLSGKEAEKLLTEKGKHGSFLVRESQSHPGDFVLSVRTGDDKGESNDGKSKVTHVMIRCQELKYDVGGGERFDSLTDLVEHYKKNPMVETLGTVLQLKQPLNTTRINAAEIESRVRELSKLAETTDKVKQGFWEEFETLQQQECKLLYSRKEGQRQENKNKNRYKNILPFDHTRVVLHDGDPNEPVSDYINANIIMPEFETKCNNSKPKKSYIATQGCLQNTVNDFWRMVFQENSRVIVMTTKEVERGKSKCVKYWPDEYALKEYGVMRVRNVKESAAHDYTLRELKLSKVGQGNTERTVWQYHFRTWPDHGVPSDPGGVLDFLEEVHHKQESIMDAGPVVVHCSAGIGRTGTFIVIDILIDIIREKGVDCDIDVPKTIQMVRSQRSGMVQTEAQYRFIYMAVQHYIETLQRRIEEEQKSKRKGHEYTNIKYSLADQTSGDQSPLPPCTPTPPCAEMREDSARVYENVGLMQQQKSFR
# Excerpt: (§1) To test the synthesized compounds for their potential to inhibit SHP2 activity, a fluorescence intensity-based assay using 6,8-difluoro-4-methylumbelliferyl phosphate (DiFMUP) as the substrate was adapted for three recombinant SHP2 constructs: (1) the SHP2 catalytic domain (SHP2cat; residues 248–527), (2) the full-length SHP2-E76K oncogenic mutant, and (3) the full-length SHP2 WT (SHP2-WT). The recombinant SHP2 proteins were expressed and purified as described previously ([36]). A dually phosphorylated peptide derived from the insulin receptor substrate 1 (IRS-1) served as a surrogate binding protein and was used to activate SHP2-WT ([30], [36]). […] Michaelis–Menten experiments to determine the DiFMUP Michaelis–Menten constant (Km) for each SHP2 construct were performed as described previously ([36]) and yielded the following values: SHP2-WT, Km = 60 μM; SHP2-E76K, Km = 20 μM; and SHP2cat, Km = 20 μM. Relative maximum rates (Vmax) of the DiFMUP reactions expressed as relative fluorescence units per minute (RFU/min) were as follows: SHP2-WT, Vmax = 871 RFU/min; SHP2-E76K, Vmax = 2730 RFU/min; and SHP2cat, Vmax = 2912 RFU/min. IC50 values for each compound were determined from initial rates in 10-point dose–response assays using DiFMUP at a concentration corresponding to its Km value for the respective SHP2 construct. […] Replacements for the benzothiophenone were explored using analog #10.
# (§2) Recombinant human full-length SHP2 (1–594) WT and E76K mutants, as well as the SHP2cat (248–527), were expressed and purified as described before ([36], [41]). Recombinant human PTP1B (1–300) and the codon-optimized STEP (280–566) catalytic domains were cloned into PET-15b and expressed as N-His-tagged fusion proteins. For expression, transformed BL21(DE3) cells were grown and induced similar as described for SHP2. Collected cells were resuspended in lysis buffer (25 mM Tris, pH 7.5, 300 mM NaCl, 50 mM imidazole, and 10% glycerol) with 100 mg/l RNaseA and were lysed with two passages using a microfluidizer. The lysate was clarified by centrifugation at 15,000g for 50 min and applied to nickel–nitrilotriacetic acid resin. The column resin was washed, and the PTP1B or STEP protein was eluted in lysis buffer at 300 mM imidazole. The PTP1B or STEP protein was further purified by S75 size-exclusion chromatography in 50 mM Tris, pH 7.5, 50 mM NaCl. The eluted peak fractions were supplemented with tris(2-carboxyethyl)phosphine to 10 mM, concentrated by ultrafiltration, and stored at −80 °C. The purified yield of PTP1B was 33 mg/l cell culture; the yield of STEP was 16 mg/l cell culture.
# (§3) SHP2 inhibitors were tested at RT in a 384-well plate format standard phosphatase fluorescence intensity assay using DiFMUP (Invitrogen/Thermo Fisher Scientific) as a substrate and a total reaction volume of 25 μl. SHP2 inhibitors or vehicle (DMSO) were spotted in triplicate into a black Greiner FLUOTRAC 200 384-well microplate (catalog no.: 781076; Greiner) for a 10-point dose–response assay using an Echo 555 Liquid Handler (Labcyte, Inc). PTP working solutions were prepared at a 0.625 nM concentration (for a final concentration of 0.5 nM) in buffer containing 50 mM Bis–Tris, pH 6.0, 50 mM NaCl, 5 mM DTT, and 0.01% Tween-20. Prior to the assay, a dually phosphorylated IRS-1 peptide (625 nM [500 nM final] ([30])) was added to full-length WT SHP2 working solutions and incubated for 20 min. DiFMUP working solutions at 5× final concentration were prepared in 50 mM Bis–Tris, pH 6.0, 50 mM NaCl, and 0.01% Tween-20. About 20 μl of PTP working solution was dispensed into the microplate and incubated with inhibitor for 20 min at RT. […] The reaction was initiated by addition of 5 μl DiFMUP working solutions. Fluorescence intensity was measured in kinetic mode (every minute for 7 or 10 min) using a Tecan Spark Multimode Microplate Reader (Tecan) with an excitation wavelength of 360 nm and an emission wavelength of 460 nm. […]
# [2] = molecular target: T2, full-length SHP2 WT (SHP2-WT) (Homo sapiens, UniProt Q06124); experiment: DiFMUP fluorescence phosphatase inhibition assay, SHP2-WT activated with IRS-1 peptide; assay type: biochemical; conditions: DiFMUP at Km (60 μM), pH 6.0
# T2 construct: Recombinant human full-length SHP2 (1–594) WT and E76K mutants; made in house
# Excerpt: as §1, §2, §3
# [3] = molecular target: T3, SHP2 catalytic domain (SHP2cat; residues 248–527) (Homo sapiens, UniProt Q06124); experiment: DiFMUP fluorescence phosphatase inhibition assay, SHP2cat; assay type: biochemical; conditions: DiFMUP at Km (20 μM), pH 6.0; read-out: SHP2cat; IC50
# T3 construct: the SHP2 catalytic domain (SHP2cat; residues 248–527); made in house
# T3 sequence (Q06124 248-527): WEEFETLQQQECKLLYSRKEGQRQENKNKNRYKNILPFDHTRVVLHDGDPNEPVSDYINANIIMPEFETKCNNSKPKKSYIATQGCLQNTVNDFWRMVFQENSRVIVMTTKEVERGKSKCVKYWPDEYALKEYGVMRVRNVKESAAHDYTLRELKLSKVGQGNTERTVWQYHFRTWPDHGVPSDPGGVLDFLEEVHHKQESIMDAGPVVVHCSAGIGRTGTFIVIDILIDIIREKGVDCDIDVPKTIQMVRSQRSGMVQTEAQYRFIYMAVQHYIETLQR
# Excerpt: as §1, §2, §3
# [4] = system: Kasumi-1 acute myeloid leukemia (AML) cells; experiment: Cell viability (CellTiter-Glo), Kasumi-1; assay type: cell-based; conditions: various concentrations, 3 days
# Experimental: (§4) Inhibition of SHP2 has been reported to inhibit the growth of cancer cells including Kasumi-1 acute myeloid leukemia (AML) and KYSE-520 esophageal cancer cells ([30]). […] Thus, we treated two TNBC cell lines, BT-549 and MDA-MB-468, with SBI-4668 or the SHP2 allosteric inhibitor SHP099 at various concentrations and determined cell viability after 72 h, compared with the vehicle control (Fig. 4C). […] Next, we performed an 11-day colony formation assay with TNBC cells treated with SBI-4668 or SHP099 at 5, 10, or 20 μM (Fig. 4D).
# (§5) Viability of AML and esophageal carcinoma cells was assessed using the ATP-depletion assay CellTiter-Glo (Promega). Cells were harvested at 1 × 10^6/ml to 2 × 10^6 cells/ml with cell numbers determined by trypan blue using the Countess Cell counter (Thermo Scientific) and resuspended in culture media. About 3000 cells (in 20 μl) were seeded in a 384-well format white and clear-bottom microplate (catalog no.: 781098; Greiner) spotted with test compound or vehicle control (DMSO) using an Echo 555 Liquid Handler. Cells were incubated for 3 days, before 10 μl of CellTiter-Glo reagent mix was added to each well and incubated for 10 min at RT. Luminescence was read on a Tecan Spark Multimode Microplate Reader, and data were analyzed using GraphPad Prism software.
# [5] = system: KYSE-520 esophageal cancer cells; experiment: Cell viability (CellTiter-Glo), KYSE-520; assay type: cell-based; conditions: various concentrations, 3 days
# Experimental: as §4, §5
IC50 [1],IC50 [2],IC50 [3],Compound,effect on Kasumi-1 cell growth [4],effect on KYSE-520 cell growth [5]
7.2 µM,13 µM,2.4 µM,"O=C(O)c1cc(-c2ccc(/C=C3\Oc4ccccc4C3=O)o2)ccc1O [SBI-0165, (Z)-2-Hydroxy-5-(5-((3-oxobenzofuran-2(3H)-ylidene)methyl)furan-2-yl)benzoic acid]",,
7.2 µM,18 µM,5 µM,"Nc1cccc(NC(=O)c2cc(-c3ccc(/C=C4\Sc5ccccc5C4=O)o3)ccc2O)c1 [SBI-2126, (Z)-N-(3-Aminophenyl)-2-hydroxy-5-(5-((3-oxobenzo[b]thiophen-2(3H)-ylidene)methyl)furan-2-yl)benzamide]",,
11 µM,14 µM,3.1 µM,"O=C(NNc1ccccc1)c1cc(-c2ccc(/C=C3\Sc4ccccc4C3=O)o2)ccc1O [SBI-2128, (Z)-2-Hydroxy-5-(5-((3-oxobenzo[b]thiophen-2(3H)-ylidene)methyl)furan-2-yl)-N′-phenylbenzohydrazide]",,
15 µM,52 µM,4.3 µM,"O=C1/C(=C/c2ccc(-c3ccc(O)c(C(=O)N4CCCCC4)c3)o2)Sc2ccccc21 [SBI-2131, (Z)-2-((5-(4-Hydroxy-3-(piperidine-1-carbonyl)phenyl)furan-2-yl)methylene)benzo[b]thiophen-3(2H)-one]",,
6 µM,24 µM,7.4 µM,"O=C1CCCC1=Cc1ccc(-c2ccc(O)c(C(=O)O)c2)o1 [SBI-3191, 2-Hydroxy-5-(5-((2-oxocyclopentylidene)methyl)furan-2-yl)benzoic acid]",,
10 µM,15 µM,4.5 µM,"O=C(O)c1cc(-c2ccc(C=C3Cc4ccccc4C3=O)o2)ccc1O [SBI-3204, 2-Hydroxy-5-(5-((1-oxo-1,3-dihydro-2H-inden-2-ylidene)methyl)furan-2-yl)benzoic acid]",,
,> 100 µM,,"CC(C)NC(=O)c1cccc(-c2ccc(/C=C3\Sc4ccccc4C3=O)o2)c1 [SBI-9639, (Z)-N-isopropyl-3-(5-((3-oxobenzo[b]thiophen-2(3H)-ylidene)methyl)furan-2-yl)benzamide]",no notable effects,no notable effects
